According to patent publication US20250289826A1, “PLPRO PROTEIN INHIBITOR, AND PREPARATION METHOD AND APPLICATION THEREOF” (priority 2022, published 2025):

Target: PLpro (Severe acute respiratory syndrome coronavirus 2 (2019-nCoV) (SARS-CoV-2), UniProt P0DTD1)
Test: Assay for PLpro inhibitory activity (Ub-AMC fluorescence; single point inhibition test and IC50 determination)
Assay type: biochemical
Details: for IC50: fluorescence measured after 15 min of reaction; for inhibition at 1 µM: read-out: inhibition of PLpro (1 μM), 1 μM test compound, 100 nM PLpro, 10 μM Ub-AMC, 37° C. 30 min; for inhibition of PLpro (1 μM): 1 μM test compound, 100 nM PLpro, 10 μM Ub-AMC, 37° C. 30 min

Structure (SMILES): Cc1ccc(N2CC3CCC(C2)N3)cc1C(=O)NC1(c2cccc3cc(F)ccc23)CC1 [Example C1]
- IC50: 83 ± 6.63 nM
- inhibition at 1 µM: 97.7%

Structure (SMILES): Cc1ccc(N2CCNCC2)cc1C(=O)NC1(c2ccc(F)c3ccccc23)CC1 [Example C2]
- IC50: 98 ± 12.1 nM
- inhibition at 1 µM: 96.4%

Structure (SMILES): Cc1ccc(N2CC3CCC(C2)N3)cc1C(=O)NC1(c2ccc(F)c3ccccc23)CC1 [Example C3]
- IC50: 40.1 ± 3.01 nM
- inhibition at 1 µM: 96.2%

Structure (SMILES): Cc1ccc(N2CC3CCC(C2)N3)cc1C(=O)NC1(c2cccc(-c3cccs3)c2)CC1 [Example C4]
- inhibition at 1 µM: 73.4%

Structure (SMILES): Cc1ccc(N2CC3CCC(C2)N3C)cc1C(=O)NC1(c2cccc(-c3cccs3)c2)CC1 [Example C5]
- IC50: 104 ± 6.02 nM
- inhibition at 1 µM: 79.5%

Structure (SMILES): Cc1ccc(N2CCNCC2)cc1C(=O)NC1(c2cccc(-c3cccs3)c2)CC1 [Example C6]
- inhibition at 1 µM: 56.5%

Structure (SMILES): Cc1ccc(N2CC3CCC(C2)N3)cc1C(=O)NC1(c2cccc(C(C)(C)C)c2)CC1 [Example C7]
- inhibition at 1 µM: 15%

Structure (SMILES): Cc1ccc(N2CC3CCC(C2)N3C)cc1C(=O)NC1(c2cccc(C(C)(C)C)c2)CC1 [Example C8]
- inhibition at 1 µM: 37.2%

Structure (SMILES): Cc1ccc(N2CC(N(C)C)C2)cc1C(=O)NC1(c2cccc3cc(F)ccc23)CC1 [Example C9]
- IC50: 52.1 ± 4.18 nM
- inhibition at 1 µM: 98%

Structure (SMILES): Cc1ccc(N2CC(N(C)C)C2)cc1C(=O)NC1(c2cccc3cc(F)c(F)cc23)CC1 [Example C10]
- IC50: 13 ± 2.76 nM
- inhibition at 1 µM: 98.2%

Structure (SMILES): Cc1ccc(N2CC(N(C)C)C2)cc1C(=O)NC1(c2ccc(Cl)c3ccccc23)CC1 [Example C11]
- IC50: 83.1 ± 12.7 nM
- inhibition at 1 µM: 96.8%

Structure (SMILES): COc1ccc(C2(NC(=O)c3cc(N4CC(N(C)C)C4)ccc3C)CC2)c2ccccc12 [Example C12]
- IC50: 18.6 ± 2.3 nM
- inhibition at 1 µM: 97.8%

Structure (SMILES): Cc1ccc(N2CC(N(C)C)C2)cc1C(=O)NC1(c2ccc(Br)c3ccccc23)CC1 [Example C13]
- IC50: 79.8 ± 6.04 nM
- inhibition at 1 µM: 98.5%

Structure (SMILES): Cc1ccc(N2CC(N(C)C)C2)cc1C(=O)NC1(c2ccc(C)c3ccccc23)CC1 [Example C14]
- IC50: 205 ± 13.6 nM
- inhibition at 1 µM: 95.1%

Structure (SMILES): Cc1ccc(N2CC(N(C)C)C2)cc1C(=O)NC1(c2ccc(OC(F)F)c3ccccc23)CC1 [Example C15]
- inhibition of PLpro (1 μM): 98.0%

Structure (SMILES): Cc1ccc(N2CC(N(C)C)C2)cc1C(=O)NC1(c2ccc(F)c3ccccc23)CC1 [Example C16]
- IC50: 56.4 ± 8.48 nM
- inhibition at 1 µM: 89.4%

Structure (SMILES): Cc1ccc(N2CC(N(C)C)C2)cc1C(=O)NC1(c2cccc3c(Cl)cccc23)CC1 [Example C17]
- IC50: 18.7 ± 5.29 nM
- inhibition at 1 µM: 98.1%

Structure (SMILES): Cc1ccc(N2CC(N(C)C)C2)cc1C(=O)NC1(c2cccc3c(F)cccc23)CC1 [Example C18]
- IC50: 17.8 ± 1.94 nM
- inhibition at 1 µM: 97.6%

Structure (SMILES): Cc1ccc(N2CC(N(C)C)C2)cc1C(=O)NC1(c2ccccc2)CC1 [Example C19]
- inhibition at 1 µM: 4.9%

Structure (SMILES): Cc1ccc(N2CC(N(C)C)C2)cc1C(=O)NC1(c2csc3ccccc23)CC1 [Example C20]
- IC50: 76.5 ± 9.48 nM
- inhibition at 1 µM: 91.9%

Structure (SMILES): Cc1ccc(N2CC(N(C)C)C2)cc1C(=O)NC1(c2cccc3c2CCCC3)CC1 [Example C21]
- IC50: 91.1 ± 8.22 nM
- inhibition at 1 µM: 90.4%

Structure (SMILES): Cc1ccc(N2CC(N(C)C)C2)cc1C(=O)NC1(c2ccc(-c3ccccc3)cc2)CC1 [Example C22]
- inhibition at 1 µM: 0%

Structure (SMILES): Cc1ccc(N2CC(N(C)C)C2)cc1C(=O)NC1(c2cccc(-c3ccccc3)c2)CC1 [Example C23]
- inhibition at 1 µM: 5.8%

Structure (SMILES): Cc1ccc(N2CC(N(C)C)C2)cc1C(=O)NC1(c2cccc3occc23)CC1 [Example C24]
- IC50: 423 ± 61.4 nM
- inhibition at 1 µM: 82.3%

Structure (SMILES): Cc1ccc(N2CC(N(C)C)C2)cc1C(=O)NC1(C2=CCCc3ccccc32)CC1 [Example C25]
- inhibition at 1 µM: 55%

Structure (SMILES): Cc1ccc(N2CC(N(C)C)C2)cc1C(=O)NC1(c2cccc3ncccc23)CC1 [Example C27]
- inhibition of PLpro (1 μM): 88.3%
- IC50: 97.6 nM

Structure (SMILES): Cc1ccc(N2CC(N(C)C)C2)cc1C(=O)NC1(c2ccnc3ccccc23)CC1 [Example C28]
- IC50: 129 nM
- inhibition at 1 µM: 89.7%

Structure (SMILES): Cc1ccc(N2CC(N(C)C)C2)cc1C(=O)NC1(c2ccnc3c(Cl)cccc23)CC1 [Example C29]
- IC50: 44.9 nM
- inhibition at 1 µM: 92.9%

Structure (SMILES): COc1cccc2c(C3(NC(=O)c4cc(N5CC(N(C)C)C5)ccc4C)CC3)ccnc12 [Example C30]
- IC50: 67.4 nM
- inhibition at 1 µM: 91.5%

Structure (SMILES): Cc1ccc(N2CCCC(N(C)C)C2)cc1C(=O)NC1(c2ccc(F)c3ccccc23)CC1 (centres unmarked) [Example C31]
- inhibition at 1 µM: 49.2%

Structure (SMILES): Cc1ccc(N2CCCC(N(C)C)C2)cc1C(=O)NC1(c2ccnc3ccccc23)CC1 (centres unmarked) [Example C32]
- inhibition at 1 µM: 43.9%

Structure (SMILES): Cc1ccc(N2CCS(=O)(=O)CC2)cc1C(=O)NC1(c2ccnc3ccccc23)CC1 [Example C33]
- inhibition at 1 µM: 41%

Structure (SMILES): Cc1ccc(NC2CN3CCC2CC3)cc1C(=O)NC1(c2ccnc3ccccc23)CC1 (centres unmarked) [Example C34]
- inhibition at 1 µM: 31.1%

Structure (SMILES): Cc1ccc(N2CCS(=O)(=O)CC2)cc1C(=O)NC1(c2ccc(F)c3ccccc23)CC1 [Example C35]
- inhibition at 1 µM: 2.6%

Structure (SMILES): COC1(C)CN(c2ccc(C)c(C(=O)NC3(c4cccc5ncccc45)CC3)c2)C1 [Example C36]
- inhibition at 1 µM: 3.5%

Structure (SMILES): Cc1ccc(N2CC(C(=O)O)C2)cc1C(=O)NC1(c2cccc3ncccc23)CC1 [Example C37]
- inhibition at 1 µM: 12.6%

Structure (SMILES): COC1(C)CN(c2ccc(C)c(C(=O)NC3(c4ccc(F)c5ncccc45)CC3)c2)C1 [Example C38]
- inhibition at 1 µM: 11.7%

Structure (SMILES): Cc1ccc(NC2CN3CCC2CC3)cc1C(=O)NC1(c2ccc(F)c3ncccc23)CC1 (centres unmarked) [Example C39]
- inhibition at 1 µM: 40.8%

Structure (SMILES): Cc1ccc(N2CCCC(N(C)C)C2)cc1C(=O)NC1(c2ccc(F)c3ncccc23)CC1 (centres unmarked) [Example C40]
- inhibition at 1 µM: 55.2%

Structure (SMILES): Cc1ccc(N2CCS(=O)(=O)CC2)cc1C(=O)NC1(c2ccc(F)c3ncccc23)CC1 [Example C41]
- inhibition at 1 µM: 32.8%

Structure (SMILES): Cc1ccc(N2CCN(C(C)C)CC2)cc1C(=O)NC1(c2ccnc3ccccc23)CC1 [Example C42]
- inhibition at 1 µM: 85.2%

Structure (SMILES): Cc1ccc(N2CCN(C3CC3)CC2)cc1C(=O)NC1(c2ccnc3ccccc23)CC1 [Example C43]
- inhibition at 1 µM: 71.9%

Structure (SMILES): Cc1ccc(N2CCN(C(C)C)CC2)cc1C(=O)NC1(c2ccc(F)c3ncccc23)CC1 [Example C44]
- inhibition at 1 µM: 84.9%

Structure (SMILES): Cc1ccc(N2CCN(C3CC3)CC2)cc1C(=O)NC1(c2ccc(F)c3ncccc23)CC1 [Example C45]
- inhibition at 1 µM: 81.4%

Structure (SMILES): Cc1ccc(N2CCN(C3CC3)CC2)cc1C(=O)NC1(c2cccc3ncccc23)CC1 [Example C46]
- inhibition at 1 µM: 77.6%

Structure (SMILES): Cc1ccc(N2CC(N(C)C)C2)cc1C(=O)NC1(c2ccc3ccccc3c2)CC1 [Example C47]
- inhibition at 1 µM: 58%

Structure (SMILES): Cc1ccc(N2CCN(C(C)C)CC2)cc1C(=O)NC1(c2ccc(F)c3ccccc23)CC1 [Example C48]
- inhibition at 1 µM: 84.4%

Structure (SMILES): Cc1ccc(N2CCN(C3CC3)CC2)cc1C(=O)NC1(c2ccc(F)c3ccccc23)CC1 [Example C49]
- inhibition at 1 µM: 58.4%

Structure (SMILES): Cc1ccc(NC2CCNC2)cc1C(=O)NC1(c2ccc(F)c3ccccc23)CC1 (centres unmarked) [Example C50]
- inhibition at 1 µM: 27.8%

Structure (SMILES): Cc1ccc(NC2CCN(C)CC2)cc1C(=O)NC1(c2ccc(F)c3ncccc23)CC1 [Example C51]
- inhibition at 1 µM: 38.4%

Structure (SMILES): Cc1ccc(NC2CCNC2)cc1C(=O)NC1(c2ccc(F)c3ncccc23)CC1 (centres unmarked) [Example C53]
- inhibition at 1 µM: 44.9%

Structure (SMILES): Cc1ccc(NC2CCNCC2)cc1C(=O)NC1(c2ccc(F)c3ncccc23)CC1 [Example C56]
- inhibition at 1 µM: 24.5%

Structure (SMILES): Cc1ccc(N2CC(N(C)C)C2)cc1C(=O)NC1(c2cccc3ccsc23)CC1 [Example C57]
- inhibition at 1 µM: 92%

Structure (SMILES): Cc1ccc(N2CC(N(C)C)C2)cc1C(=O)NC1(c2ccc(OC(F)(F)F)c3ncccc23)CC1 [Example C58]
- IC50: 220 nM
- inhibition at 1 µM: 88%

Structure (SMILES): Cc1ccc(N2CC([N+](C)(C)[O-])C2)cc1C(=O)NC1(c2ccc(F)c3ncccc23)CC1 [Example C59]
- inhibition at 1 µM: 0%

Structure (SMILES): Cc1ccc(N2CC(N(C)C)C2)cc1C(=O)NC1(c2ccc(F)c3[nH]c(=O)ccc23)CC1 [Example C60]
- inhibition at 1 µM: 82%

Structure (SMILES): Cc1ccc(N2CC(N(C)C)C2)cc1C(=O)NC1(c2cc(C(F)(F)F)nc3c(C(F)(F)F)cccc23)CC1 [Example C61]
- inhibition at 1 µM: 85%

Structure (SMILES): Cc1ccc(N2CC(N(C)C)C2)cc1C(=O)NC1(c2ccc(F)c3nc(C(F)F)ccc23)CC1 [Example C62]
- inhibition at 1 µM: 92%

Structure (SMILES): Cc1ccc(N2CCC(O)CC2)cc1C(=O)NC1(c2ccc(F)c3ncccc23)CC1 [Example C63]
- inhibition at 1 µM: 30%

Structure (SMILES): COc1ccc2c(C3(NC(=O)c4cc(N5CC(N(C)C)C5)ccc4C)CC3)ccc(F)c2n1 [Example C64]
- IC50: 50.6 nM
- inhibition at 1 µM: 78%

Structure (SMILES): Cc1ccc(N2CC(C(C)(C)O)C2)cc1C(=O)NC1(c2ccc(F)c3ncccc23)CC1 [Example C65]
- inhibition at 1 µM: 22%

Structure (SMILES): Cc1ccc(N2CC3C(N)C3C2)cc1C(=O)NC1(c2ccc(F)c3ncccc23)CC1 (centres unmarked) [Example C66]
- inhibition at 1 µM: 68%

Structure (SMILES): Cc1ccc(N2CC(N(C)C)C2)cc1C(=O)NC1(c2ccnc3c(F)cccc23)CC1 [Example C67]
- IC50: 36.6 nM
- inhibition at 1 µM: 97.7%

Structure (SMILES): Cc1ccc(N2CC(N(C)C)C2)cc1C(=O)NC1(c2ccc(OC(F)F)c3ccccc23)CC1 [Example C68]
- IC50: 182 nM
- inhibition at 1 µM: 98.5%

Structure (SMILES): Cc1ccc(N2CC(N(C)C)C2)cc1C(=O)NC1(c2ccc(OC(F)F)c3ncccc23)CC1 [Example C69]
- IC50: 29.3 nM
- inhibition at 1 µM: 98.8%

Structure (SMILES): Cc1ccc(N2CC(N(C)C)C2)cc1C(=O)NC1(c2ccc(C#N)c3ccccc23)CC1 [Example C70]
- IC50: 40.6 nM
- inhibition at 1 µM: 99.2%

Structure (SMILES): Cc1ccc(N2CC(N(C)C)C2)cc1C(=O)NC1(c2cccc(Oc3ccccc3)c2)CC1 [Example C71]
- inhibition at 1 µM: 25%

Structure (SMILES): Cc1ccc(N2CC(N(C)C)C2)cc1C(=O)NC1(c2ccc3c(c2)c2ccccc2n3C)CC1 [Example C72]
- inhibition at 1 µM: 91%

Structure (SMILES): Cc1ccc(N2CC(N(C)C)C2)cc1C(=O)NC1(c2cnc(O)c3ccccc23)CC1 [Example C73]
- IC50: 172 ± 18.1 nM
- inhibition at 1 µM: 89.3%

Structure (SMILES): COc1ncc(C2(NC(=O)c3cc(N4CC(N(C)C)C4)ccc3C)CC2)c2ccccc12 [Example C74]
- IC50: 217 ± 22.2 nM
- inhibition at 1 µM: 88.6%
